Columns and labels:
[1] = set-up: method as in PMID 31478386; conditions: clinical; cited from earlier work
[2] = test system: p-PRAS40; set-up: method as in PMID 31118521; conditions: at 4 h post-dosing; cited from earlier work
[3] = test system: cells with PI3K/AKT/mTOR pathway alterations; conditions: cited from earlier work
[4] = human, in vivo
Excerpt: Safety evaluations included adverse events (AEs), vital signs, laboratory tests, and 12-lead electrocardiograms at screening, at planned times during each cycle, during follow-up, and up to 30 days after the last dose. Adverse events were graded using the National Cancer Institute Common CTCAE version 4.03.
Descriptive statistics were used to summarize demographic data, other baseline characteristics, AEs, safety parameters, and tumor assessment data. […] All subjects who completed the study were included in the evaluation of PD/PK. […] The incidence of treatment-emergent adverse events and drug-related adverse events, respectively, was summarized by treatment in frequency tables using the CTCAE grade.

[5] = test system: HR+ advanced breast cancer; set-up: method as in PMID 31091374; conditions: in combination with fulvestrant, cited from earlier work

## NC1(C(=O)N[C@@H](CCO)c2ccc(Cl)cc2)CCN(c2ncnc3[nH]ccc23)CC1 [AZD5363]
[1]
  Rate of Grade 3 hyperglycemia: up to 39.0%
[2]
  Reduction in p-PRAS40: about 60%

## NC(=O)c1ccc2nc(-c3ccc(C4(N)CCC4)cc3)c(-c3ccccc3)n2n1 [BAY 1125976]
[3]
  IC50 of inhibition of proliferation: submicromolar
[4]
  Patients with at least one treatment-emergent adverse event (TEAE): 77 (97.5%) patients
  Patients with serious adverse events (SAEs): 33 patients

## Cc1nc(NC(=O)N2CCC[C@H]2C(N)=O)sc1-c1ccnc(C(C)(C)C(F)(F)F)c1 [alpelisib]
[5]; PIK3CA-mutated HR+ advanced breast cancer after previous endocrine therapy, versus 5.7 for control
  PFS: 11.0 months
[5]; patients without PIK3CA mutation as printed, versus 12.8% placebo control
  Overall response rate: 26.6%

Reference: paper PMC6966663 (Cancers, 2019)
